Assay results as given in the supplement of paper PMC13380429.

Tests used:
Details in all cases: 72 h
HepG2 [1] = test: relative viability EC50 (midpoint between 100% and the lowest measured viability); higher = less toxic
Caco-2 [2] = test: as above
Vero E6 [3] = test: as above
U2OS [4] = test: as above
Calu-3 [5] = test: as above
HepG2 [6] = test: drug sensitivity score (DSS) for viability; higher = more toxic; extreme values may be limits of the assay
Caco-2 [7] = test: as above
Vero E6 [8] = test: as above
U2OS [9] = test: as above
Calu-3 [10] = test: as above
HepG2 [11] = test: cell viability relative to DMSO; higher = less toxic
Caco-2 [12] = test: as above
Vero E6 [13] = test: as above
U2OS [14] = test: as above
Calu-3 [15] = test: as above

| SMILES | relative viability EC50 (HepG2 [1]) [µM] | relative viability EC50 (Caco-2 [2]) [µM] | relative viability EC50 (Vero E6 [3]) [µM] | relative viability EC50 (U2OS [4]) [µM] | relative viability EC50 (Calu-3 [5]) [µM] | drug sensitivity score (HepG2 [6]) | drug sensitivity score (Caco-2 [7]) | drug sensitivity score (Vero E6 [8]) | drug sensitivity score (U2OS [9]) | drug sensitivity score (Calu-3 [10]) | cell viability (HepG2 [11]; 1 nM) [%] | cell viability (HepG2 [11]; 10 nM) [%] | cell viability (HepG2 [11]; 100 nM) [%] | cell viability (HepG2 [11]; 1000 nM) [%] | cell viability (HepG2 [11]; 10000 nM) [%] | cell viability (Caco-2 [12]; 1 nM) [%] | cell viability (Caco-2 [12]; 10 nM) [%] | cell viability (Caco-2 [12]; 100 nM) [%] | cell viability (Caco-2 [12]; 1000 nM) [%] | cell viability (Caco-2 [12]; 10000 nM) [%] | cell viability (Vero E6 [13]; 1 nM) [%] | cell viability (Vero E6 [13]; 10 nM) [%] | cell viability (Vero E6 [13]; 100 nM) [%] | cell viability (Vero E6 [13]; 1000 nM) [%] | cell viability (Vero E6 [13]; 10000 nM) [%] | cell viability (U2OS [14]; 1 nM) [%] | cell viability (U2OS [14]; 10 nM) [%] | cell viability (U2OS [14]; 100 nM) [%] | cell viability (U2OS [14]; 1000 nM) [%] | cell viability (U2OS [14]; 10000 nM) [%] | cell viability (Calu-3 [15]; 1 nM) [%] | cell viability (Calu-3 [15]; 10 nM) [%] | cell viability (Calu-3 [15]; 100 nM) [%] | cell viability (Calu-3 [15]; 1000 nM) [%] | cell viability (Calu-3 [15]; 10000 nM) [%] |
| --- | --- | --- | --- | --- | --- | --- | --- | --- | --- | --- | --- | --- | --- | --- | --- | --- | --- | --- | --- | --- | --- | --- | --- | --- | --- | --- | --- | --- | --- | --- | --- | --- | --- | --- | --- |
| CCOC(=S)SSC(=S)OCC [dixanthogen] | > 10 | > 10 | > 10 | > 10 | > 10 | 0.1 | 0 | 0 | 0 | 0 | 101 | 111 | 101 | 95.1 | 88.8 | 104 | 96.3 | 104 | 118 | 104 | 97.3 | 95.6 | 91.5 | 90.4 | 97.3 | 104 | 99.7 | 100 | 101 | 104 | 101 | 106 | 104 | 96 | 103 |
| COc1cc2nc(N3CCC(N4CCCCC4)CC3)nc(NC3CCCCCC3)c2cc1OC [C-021] | 3.24 | 2.47 | 2.98 | 2.65 | 2.31 | 5.5 | 5.3 | 5.9 | 5.4 | 6.9 | 108 | 93.7 | 99.4 | 101 | -0.2 | 101 | 101 | 108 | 93.4 | 23.4 | 96.8 | 102 | 99.1 | 97.5 | 0.8 | 99.4 | 98.7 | 99.1 | 94.6 | 16.7 | 98.4 | 100 | 94.7 | 90 | 4.2 |
| CC(C(=O)O)c1ccc(C(=O)c2cccs2)cc1 (stereo not given) [suprofen] | > 10 | > 10 | > 10 | > 10 | > 10 | 1.1 | 0 | 0 | 0 | 1.6 | 102 | 93.2 | 92.9 | 86.8 | 85.3 | 105 | 98 | 101 | 98 | 90.8 | 97.7 | 97.9 | 95.4 | 102 | 98.7 | 101 | 93.5 | 97.4 | 97 | 103 | 97.9 | 103 | 89 | 86.6 | 89.8 |
| CCCNC(=O)Nc1ccc(Oc2ncnc3cc(OC)c(OC)cc23)cc1Cl [KRN-633] | > 10 | > 10 | > 10 | > 10 | > 10 | 0 | 0 | 0 | 0 | 0 | 103 | 90.5 | 100 | 92.1 | 94.5 | 92.8 | 98.5 | 86.6 | 93 | 90.8 | 101 | 103 | 104 | 105 | 99.2 | 96.8 | 97.7 | 96 | 97 | 93.4 | 100 | 101 | 95.4 | 101 | 97.4 |
| O=C(c1ccc(Cl)o1)N1CC2CNCC2C1 (stereo not given) [AZD1446] | > 10 | > 10 | > 10 | > 10 | > 10 | 0 | 0 | 0 | 0 | 0 | 99.3 | 93.1 | 90.2 | 99.1 | 88 | 103 | 97.8 | 97 | 103 | 103 | 96.4 | 98.2 | 98.7 | 99.6 | 91.3 | 99.6 | 98.6 | 96.1 | 97.7 | 97.8 | 112 | 89.8 | 94.4 | 89.4 | 107 |
| Cc1ccc(-c2ccc(C)cn2)nc1 [abametapir] | > 10 | > 10 | > 10 | > 10 | > 10 | 0 | 0 | 0 | 0 | 0 | 119 | 110 | 100 | 103 | 98.9 | 95.9 | 86.7 | 79.8 | 87 | 93.3 | 103 | 104 | 101 | 93.4 | 105 | 98.8 | 96.3 | 97.8 | 96.6 | 99 | 106 | 92.1 | 95.6 | 92.6 | 96.3 |
| C[C@H]1C[C@H]2[C@@H]3CCC4=CC(=O)C=C[C@]4(C)[C@H]3C(=O)C[C@]2(C)[C@@]1(O)C(=O)CO [Betapar (Meprednisone)] | > 10 | > 10 | > 10 | > 10 | > 10 | 0 | 0 | 0 | 0 | 0 | 83.6 | 97.3 | 95.5 | 95.9 | 86.5 | 86.1 | 91.1 | 87.4 | 103 | 94.8 | 103 | 102 | 101 | 99.7 | 97.4 | 97.6 | 98.3 | 96 | 98.2 | 95.1 | 92.9 | 93.2 | 91.5 | 91 | 97.8 |
